Patent publication US9924721B2 (priority 2013, dated 2018)
Marks after values point to notes of the source that are not given here.

Columns and labels:
physchem = conditions: pH 2.7
Phytophthora infestans = test: microbe, parasite or virus in culture; assay type: cell-based; conditions: for Eff. % (inhibition of fungal growth): 8 days incubation
Pythium ultimum = Pythium ultimum in vitro cell test; assay type: cell-based; conditions: 4 days incubation
Experimental: Pythium ultimum In Vitro Cell Test
• Solvent: DMSO • Culture medium: 14.6 g anhydrous D-glucose (VWR), 7.1 g Mycological Peptone (Oxoid), 1.4 g granulated Yeast Extract (Merck), QSP liter • Inoculum: mycelial suspension
Fungicides were solubilized in DMSO and the solution used to prepare the required range of concentrations. The final concentration of DMSO used in the assay was ≤1%.
Inoculum was prepared from a pre-culture of P. ultimum grown in liquid medium by homogenization using a blender. The concentration of ground mycelium in the inoculum was estimated and adjusted to the desired optical density (OD).
Fungicides were evaluated for their ability to inhibit mycelium growth in liquid culture assay. The compounds were added in the desired concentrations to culture medium containing the mycelial suspension. After 4 days of incubation, the fungicidal efficacy of compounds was determined by spectrometric measurement of mycelium growth. Inhibition of fungal growth was determined by comparing the absorbance values in wells containing the fungicides with the absorbance in control wells without fungicides.

[1] = pH 2.7
[2] = 0.25 μg/mL of active ingredient

N#CC1CCN(C(=O)CC(=O)OCc2ccccc2)CC1 [IV-02, benzyl 3-(4-cyanopiperidin-1-yl)-3-oxopropanoate]
chromatographic logP (physchem): 1.85

CCOC(=O)C(Br)C(=O)N1CCC(c2nc(C3=NOC(c4ccccc4OS(C)(=O)=O)C3)cs2)CC1 (centres unmarked) [Example I-33]
Eff. % (inhibition of fungal growth) (Phytophthora infestans; 20 μg/mL of active ingredient): 100% | Eff. % (inhibition of fungal growth) (Pythium ultimum; 20 μg/mL of active ingredient): 99% | Log P [1]: 2.72^[a]

CC(C)OC(=O)C(C(=O)N1CCC(c2nc(C3=NOC(c4c(F)cccc4OS(C)(=O)=O)C3)cs2)CC1)n1nc(C(F)F)cc1C(F)F (centres unmarked) [Example I-17]
Eff. % (inhibition of fungal growth) (Phytophthora infestans; [2]): 100% | Eff. % (inhibition of fungal growth) (Pythium ultimum; of active ingredient): 99% | Log P [1]: 3.49^[a]

C#CCOc1ccccc1C1CC(c2csc(C3CCN(C(=O)C(C(=O)OC(C)C)n4nc(C(F)F)cc4C(F)F)CC3)n2)=NO1 (centres unmarked) [Example I-09]
Eff. % (inhibition of fungal growth) (Phytophthora infestans; 20 μg/mL of active ingredient): 98% | Eff. % (inhibition of fungal growth) (Pythium ultimum; 20 μg/mL of active ingredient): 97% | Log P [1]: 3.93^[a]

CCOC(=O)CC(=O)N1CCC(c2nc(C3=NOC(c4c(Cl)cccc4OS(C)(=O)=O)C3)cs2)CC1 (centres unmarked) [Example I-49]
Eff. % (inhibition of fungal growth) (Phytophthora infestans; 20 μg/mL of active ingredient): 100% | Eff. % (inhibition of fungal growth) (Pythium ultimum; 20 μg/mL of active ingredient): 88% | Log P [1]: 2.53^[a]

C#CCOc1ccccc1C1CC(c2csc(C3CCN(C(=O)OC(C)(C)C)CC3)n2)=NO1 (centres unmarked) [tert-butyl 4-(4-{5-[2-(prop-2-yn-1-yloxy)phenyl]-4,5-dihydro-1,2-oxazol-3-yl}-1,3-thiazol-2-yl)piperidine-1-carboxylate]
chromatographic logP (physchem): 4.07

C#CCOc1cccc(F)c1C1CC(c2csc(C3CCN(C(=O)C(C(=O)OC(C)C)n4nc(C(F)F)cc4C(F)F)CC3)n2)=NO1 (centres unmarked) [Example I-07]
Eff. % (inhibition of fungal growth) (Phytophthora infestans; [2]): 100% | Eff. % (inhibition of fungal growth) (Pythium ultimum; of active ingredient): 97% | Log P [1]: 3.81^[a]

C#CCOc1cccc(F)c1C1CC(c2csc(C3CCN(C(=O)C(Br)C(=O)OCC)CC3)n2)=NO1 (centres unmarked) [Example I-26]
Eff. % (inhibition of fungal growth) (Phytophthora infestans; 20 μg/mL of active ingredient): 100% | Eff. % (inhibition of fungal growth) (Pythium ultimum; 20 μg/mL of active ingredient): 100% | Log P [1]: 2.98^[a]

COCCOC(=O)CC(=O)N1CCC(c2nc(C3=NOC(c4ccccc4OS(C)(=O)=O)C3)cs2)CC1 (centres unmarked) [Example I-46]
Eff. % (inhibition of fungal growth) (Phytophthora infestans; 20 μg/mL of active ingredient): 100% | Eff. % (inhibition of fungal growth) (Pythium ultimum; 20 μg/mL of active ingredient): 97% | Log P [1]: 2.11^[a]

CC(C)OC(=O)CC(=O)N1CCC(c2nc(C3=NOC(c4ccccc4C=O)C3)cs2)CC1 (centres unmarked) [Example I-56]
Eff. % (inhibition of fungal growth) (Phytophthora infestans; 20 μg/mL of active ingredient): 100% | Eff. % (inhibition of fungal growth) (Pythium ultimum; 20 μg/mL of active ingredient): 84% | Log P [1]: 2.57^[a]

CCOC(=O)C(C(=O)N1CCC(c2nc(C3=NOC(c4ccccc4OS(C)(=O)=O)C3)cs2)CC1)n1nc(C(F)(F)F)nc1C (centres unmarked) [Example I-06]
Eff. % (inhibition of fungal growth) (Phytophthora infestans; 20 μg/mL of active ingredient): 100% | Eff. % (inhibition of fungal growth) (Pythium ultimum; 20 μg/mL of active ingredient): 94% | Log P [1]: 3.14^[a]

C#CCOc1ccccc1C1CC(c2csc(C3CCN(C(=O)C(Br)C(=O)OCC)CC3)n2)=NO1 (centres unmarked) [Example I-30, ethyl 2-bromo-3-oxo-3-[4-(4-{5-[2-(prop-2-yn-1-yloxy)phenyl]-4,5-dihydro-1,2-oxazol-3-yl}-1,3-thiazol-2-yl)piperidin-1-yl]propanoate]
chromatographic logP (physchem): 3.18

C#CCOc1cccc(F)c1C1CC(c2csc(C3CCN(C(=O)CC(=O)OC(CC)CCCCC)CC3)n2)=NO1 (centres unmarked) [Example I-40]
Eff. % (inhibition of fungal growth) (Phytophthora infestans; 20 μg/mL of active ingredient): 100% | Eff. % (inhibition of fungal growth) (Pythium ultimum; 20 μg/mL of active ingredient): 93% | Log P [1]: 4.42^[a]

NC(=S)C1CCN(C(=O)C(C(=O)OCc2ccccc2)n2nc(C(F)F)cc2C(F)F)CC1 (centres unmarked) [II-01, benzyl 2-[3,5-bis(difluoromethyl)-1H-pyrazol-1-yl]-3-(4-carbamothioyl-piperidin-1-yl)-3-oxopropanoate]
chromatographic logP (physchem): 2.65

C#CCOc1ccccc1C1CC(c2csc(C3CCN(C(=O)CC(=O)OC(C)C)CC3)n2)=NO1 (centres unmarked) [Example I-52]
Eff. % (inhibition of fungal growth) (Phytophthora infestans; 20 μg/mL of active ingredient): 87% | Eff. % (inhibition of fungal growth) (Pythium ultimum; 20 μg/mL of active ingredient): 86% | Log P [1]: 2.94^[a]

CCOC(=O)C(C(=O)N1CCC(c2nc(C3=NOC(c4ccccc4OS(C)(=O)=O)C3)cs2)CC1)n1nc(C)nc1C (centres unmarked) [Example I-20]
Eff. % (inhibition of fungal growth) (Phytophthora infestans; 20 μg/mL of active ingredient): 100% | Eff. % (inhibition of fungal growth) (Pythium ultimum; 20 μg/mL of active ingredient): 87% | Log P [1]: 2.24^[a]

C#CCOc1cccc(Cl)c1C1CC(c2csc(C3CCN(C(=O)C(C(=O)OC(C)(C)C)n4nc(C(F)F)cc4C(F)F)CC3)n2)=NO1 (centres unmarked) [Example I-63]
Eff. % (inhibition of fungal growth) (Phytophthora infestans; [2]): 100% | Eff. % (inhibition of fungal growth) (Pythium ultimum; of active ingredient): 90% | Log P [1]: 4.31^[a]

CCOC(=O)C(C(=O)N1CCC(c2nc(C3=NOC(c4ccccc4OS(C)(=O)=O)C3)cs2)CC1)n1nc(C(F)F)cc1C(F)F (centres unmarked) [Example I-11]
Eff. % (inhibition of fungal growth) (Phytophthora infestans; 20 μg/mL of active ingredient): 100% | Eff. % (inhibition of fungal growth) (Pythium ultimum; 20 μg/mL of active ingredient): 97% | Log P [1]: 3.28^[a]

CCOC(=O)C(Br)C(=O)N1CCC(c2nc(C3=NOC(c4c(Cl)cccc4OS(C)(=O)=O)C3)cs2)CC1 (centres unmarked) [Example I-34]
Eff. % (inhibition of fungal growth) (Phytophthora infestans; 20 μg/mL of active ingredient): 100% | Eff. % (inhibition of fungal growth) (Pythium ultimum; 20 μg/mL of active ingredient): 94% | Log P [1]: 2.92^[a]

CCOC(=O)CC(=O)N1CCC(c2nc(C3=NOC(c4ccccc4OS(C)(=O)=O)C3)cs2)CC1 (centres unmarked) [Example I-50]
Eff. % (inhibition of fungal growth) (Phytophthora infestans; 20 μg/mL of active ingredient): 98% | Eff. % (inhibition of fungal growth) (Pythium ultimum; 20 μg/mL of active ingredient): 94% | Log P [1]: 2.30^[a]

C#CCOc1ccccc1C1CC(c2csc(C3CCN(C(=O)C(C(=O)OCC)n4nc(C(F)F)cc4C(F)F)CC3)n2)=NO1 (centres unmarked) [Example I-15, ethyl 2-[3,5-bis(difluoromethyl)-1H-pyrazol-1-yl]-3-oxo-3-[4-(4-{5-[2-(prop-2-yn-1-yloxy)phenyl]-4,5-dihydro-1,2-oxazol-3-yl}-1,3-thiazol-2-yl)piperidin-1-yl]propanoate]
chromatographic logP (physchem): 3.69

N#CC1CCN(C(=O)C(Br)C(=O)OCc2ccccc2)CC1 (centres unmarked) [IV-03, benzyl 2-bromo-3-(4-cyanopiperidin-1-yl)-3-oxopropanoate]
chromatographic logP (physchem): 2.24

CCCCCC(CC)OC(=O)CC(=O)N1CCC(c2nc(C3=NOC(c4ccccc4C=O)C3)cs2)CC1 (centres unmarked) [Example I-55]
Eff. % (inhibition of fungal growth) (Phytophthora infestans; 20 μg/mL of active ingredient): 100% | Eff. % (inhibition of fungal growth) (Pythium ultimum; 20 μg/mL of active ingredient): 70% | Log P [1]: 4.27^[a]

CS(=O)(=O)Oc1ccccc1C1CC(c2csc(C3CCN(C(=O)C(C(=O)OCc4ccccc4)n4nc(C(F)F)cc4C(F)F)CC3)n2)=NO1 (centres unmarked) [Example I-60, benzyl 2-[3,5-bis(difluoromethyl)-1H-pyrazol-1-yl]-3-{4-[4-(5-{2-[(methylsulfonyl)oxy]phenyl}-4,5-dihydro-1,2-oxazol-3-yl)-1,3-thiazol-2-yl]piperidin-1-yl}-3-oxopropanoate]
inhibition at 0.25 µg/mL (Phytophthora infestans; Phytophthora infestans, 192 h, read-out: Eff. % (inhibition of fungal growth)): 100% | chromatographic logP (physchem): 3.77

CS(=O)(=O)Oc1ccccc1C1CC(C(=O)CCl)=NO1 (centres unmarked) [2-[3-(chloroacetyl)-4,5-dihydro-1,2-oxazol-5-yl]phenyl methanesulfonate]
chromatographic logP (physchem): 2.37

CC(C)OC(=O)CC(=O)N1CCC(c2nc(C3=NOC(c4c(F)cccc4OS(C)(=O)=O)C3)cs2)CC1 (centres unmarked) [Example I-47]
Eff. % (inhibition of fungal growth) (Phytophthora infestans; 20 μg/mL of active ingredient): 100% | Eff. % (inhibition of fungal growth) (Pythium ultimum; 20 μg/mL of active ingredient): 93% | Log P [1]: 2.53^[a]

N#CC1CCN(C(=O)C(C(=O)OCc2ccccc2)n2nc(C(F)F)cc2C(F)F)CC1 (centres unmarked) [IV-04, benzyl 2-[3,5-bis(difluoromethyl)-1H-pyrazol-1-yl]-3-(4-cyanopiperidin-1-yl)-3-oxopropanoate]
chromatographic logP (physchem): 2.94

C#CCOc1ccccc1C1CC(c2csc(C3CCN(C(=O)C(C(=O)OC(C)(C)C)n4nc(C(F)F)cc4C(F)F)CC3)n2)=NO1 (centres unmarked) [Example I-65]
Eff. % (inhibition of fungal growth) (Phytophthora infestans; [2]): 100% | Eff. % (inhibition of fungal growth) (Pythium ultimum; of active ingredient): 91% | Log P [1]: 4.16^[a]

CCOC(=O)C(Br)C(=O)N1CCC(c2nc(C3=NOC(c4c(F)cccc4OS(C)(=O)=O)C3)cs2)CC1 (centres unmarked) [Example I-27]
Eff. % (inhibition of fungal growth) (Phytophthora infestans; 20 μg/mL of active ingredient): 100% | Eff. % (inhibition of fungal growth) (Pythium ultimum; 20 μg/mL of active ingredient): 100% | Log P [1]: 2.72^[a]

C#CCOc1cccc(F)c1C1CC(c2csc(C3CCN(C(=O)C(C(=O)OCC)n4nc(C(F)F)cc4C(F)F)CC3)n2)=NO1 (centres unmarked) [Example I-04]
Eff. % (inhibition of fungal growth) (Phytophthora infestans; [2]): 100% | Eff. % (inhibition of fungal growth) (Pythium ultimum; 20 μg/mL of active ingredient): 92% | Log P [1]: 3.57^[a]

C#CCOc1ccccc1C1CC(c2csc(C3CCNCC3)n2)=NO1 (centres unmarked) [4-(4-{5-[2-(prop-2-yn-1-yloxy)phenyl]-4,5-dihydro-1,2-oxazol-3-yl}-1,3-thiazol-2-yl)piperidinium chloride]
chromatographic logP (physchem): 1.26
